This note sets out measurements from ChEMBL document CHEMBL1201862, “PubChem BioAssay data set” (2004).

Activity calls are given as the source filed them.

One experiment concerns the target T1, Aminopeptidase N (Plasmodium falciparum FcB1/Columbia, UniProt O96935).
T1 sequence (O96935 whole entry): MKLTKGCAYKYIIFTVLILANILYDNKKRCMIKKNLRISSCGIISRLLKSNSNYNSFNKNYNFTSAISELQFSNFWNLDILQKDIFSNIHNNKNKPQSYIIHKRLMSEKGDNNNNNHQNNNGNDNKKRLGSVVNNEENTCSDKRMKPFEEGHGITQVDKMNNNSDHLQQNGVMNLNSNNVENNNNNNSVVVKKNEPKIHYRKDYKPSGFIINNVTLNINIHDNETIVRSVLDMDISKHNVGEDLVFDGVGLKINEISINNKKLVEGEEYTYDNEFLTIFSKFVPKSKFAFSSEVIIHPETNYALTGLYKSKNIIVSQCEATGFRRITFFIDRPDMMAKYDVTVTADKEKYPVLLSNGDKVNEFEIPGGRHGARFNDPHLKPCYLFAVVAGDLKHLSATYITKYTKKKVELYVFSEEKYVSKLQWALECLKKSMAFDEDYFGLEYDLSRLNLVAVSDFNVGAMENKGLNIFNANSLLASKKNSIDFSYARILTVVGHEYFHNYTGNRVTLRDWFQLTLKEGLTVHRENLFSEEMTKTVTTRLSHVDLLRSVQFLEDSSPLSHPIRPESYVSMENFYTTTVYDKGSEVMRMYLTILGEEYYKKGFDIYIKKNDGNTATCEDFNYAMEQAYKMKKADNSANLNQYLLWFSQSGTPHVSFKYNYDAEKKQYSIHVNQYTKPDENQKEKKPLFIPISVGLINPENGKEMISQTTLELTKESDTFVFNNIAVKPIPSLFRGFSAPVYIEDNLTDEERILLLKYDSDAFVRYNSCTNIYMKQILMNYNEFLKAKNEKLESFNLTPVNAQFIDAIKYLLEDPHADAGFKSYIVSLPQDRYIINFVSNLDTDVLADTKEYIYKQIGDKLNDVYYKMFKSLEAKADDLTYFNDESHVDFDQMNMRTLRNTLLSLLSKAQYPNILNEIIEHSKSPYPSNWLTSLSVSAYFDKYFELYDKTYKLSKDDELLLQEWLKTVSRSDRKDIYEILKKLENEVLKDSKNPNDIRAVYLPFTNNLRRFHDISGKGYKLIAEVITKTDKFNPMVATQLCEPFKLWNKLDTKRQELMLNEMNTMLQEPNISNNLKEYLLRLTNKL
Nature of the experiment: P. falciparum M1AAP inhibitors, biochemical, fluorogenic H-Leu-NHMec substrate, 1536-well (AID 1445). Details: species or system Plasmodium falciparum 3D7, 3D7.

For experiment [1], the target named is T2, Histone-lysine N-methyltransferase NSD2 (Homo sapiens, UniProt O96028).
T2 sequence (O96028 whole entry): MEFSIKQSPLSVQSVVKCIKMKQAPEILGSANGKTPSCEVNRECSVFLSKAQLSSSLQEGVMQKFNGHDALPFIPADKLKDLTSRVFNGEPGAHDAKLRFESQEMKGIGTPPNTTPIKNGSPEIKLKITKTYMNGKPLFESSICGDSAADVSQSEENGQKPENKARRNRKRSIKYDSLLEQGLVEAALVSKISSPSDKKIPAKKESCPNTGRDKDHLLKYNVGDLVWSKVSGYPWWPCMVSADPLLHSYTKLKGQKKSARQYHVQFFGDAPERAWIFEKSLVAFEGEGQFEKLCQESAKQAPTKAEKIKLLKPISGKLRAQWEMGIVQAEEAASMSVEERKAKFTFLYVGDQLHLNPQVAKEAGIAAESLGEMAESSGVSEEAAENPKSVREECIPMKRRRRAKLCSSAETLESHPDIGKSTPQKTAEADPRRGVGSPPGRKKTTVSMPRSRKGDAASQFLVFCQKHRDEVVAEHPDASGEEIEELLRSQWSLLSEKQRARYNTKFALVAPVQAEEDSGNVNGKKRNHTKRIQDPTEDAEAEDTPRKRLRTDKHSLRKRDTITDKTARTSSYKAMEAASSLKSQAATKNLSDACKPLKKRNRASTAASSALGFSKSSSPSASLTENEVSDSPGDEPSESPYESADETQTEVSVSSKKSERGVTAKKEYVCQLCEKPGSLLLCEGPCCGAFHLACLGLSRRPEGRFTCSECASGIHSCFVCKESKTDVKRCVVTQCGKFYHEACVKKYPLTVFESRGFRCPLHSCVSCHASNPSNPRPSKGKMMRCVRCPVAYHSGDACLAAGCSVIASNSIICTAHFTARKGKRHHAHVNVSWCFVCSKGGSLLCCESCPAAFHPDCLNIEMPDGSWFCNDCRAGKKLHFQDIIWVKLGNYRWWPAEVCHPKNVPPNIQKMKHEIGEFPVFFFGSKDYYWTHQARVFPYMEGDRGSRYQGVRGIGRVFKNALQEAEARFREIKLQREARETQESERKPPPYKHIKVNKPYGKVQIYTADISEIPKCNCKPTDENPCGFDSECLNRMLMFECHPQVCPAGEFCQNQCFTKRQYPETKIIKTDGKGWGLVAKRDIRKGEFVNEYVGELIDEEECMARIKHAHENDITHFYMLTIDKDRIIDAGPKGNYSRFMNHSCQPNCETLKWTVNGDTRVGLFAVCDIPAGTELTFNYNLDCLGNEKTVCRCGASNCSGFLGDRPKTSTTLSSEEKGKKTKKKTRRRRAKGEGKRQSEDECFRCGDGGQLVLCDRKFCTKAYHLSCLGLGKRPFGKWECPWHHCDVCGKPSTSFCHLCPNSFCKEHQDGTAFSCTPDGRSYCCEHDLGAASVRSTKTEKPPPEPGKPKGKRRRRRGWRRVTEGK
In kind it is biochemical.

A short description of experiment [2]: inhibitors of Bluetongue virus cytopathic effect, confirmation, arbovirus, BSR cells (AID 1250).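 Note: protection from viral cytopathic effect measured as cell viability by ATP luminescence.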 In kind it is functional.
For the next experiment, the target named is T3, Hexokinase HKDC1 (Homo sapiens, UniProt Q2TB90).
T3 sequence (Q2TB90 whole entry): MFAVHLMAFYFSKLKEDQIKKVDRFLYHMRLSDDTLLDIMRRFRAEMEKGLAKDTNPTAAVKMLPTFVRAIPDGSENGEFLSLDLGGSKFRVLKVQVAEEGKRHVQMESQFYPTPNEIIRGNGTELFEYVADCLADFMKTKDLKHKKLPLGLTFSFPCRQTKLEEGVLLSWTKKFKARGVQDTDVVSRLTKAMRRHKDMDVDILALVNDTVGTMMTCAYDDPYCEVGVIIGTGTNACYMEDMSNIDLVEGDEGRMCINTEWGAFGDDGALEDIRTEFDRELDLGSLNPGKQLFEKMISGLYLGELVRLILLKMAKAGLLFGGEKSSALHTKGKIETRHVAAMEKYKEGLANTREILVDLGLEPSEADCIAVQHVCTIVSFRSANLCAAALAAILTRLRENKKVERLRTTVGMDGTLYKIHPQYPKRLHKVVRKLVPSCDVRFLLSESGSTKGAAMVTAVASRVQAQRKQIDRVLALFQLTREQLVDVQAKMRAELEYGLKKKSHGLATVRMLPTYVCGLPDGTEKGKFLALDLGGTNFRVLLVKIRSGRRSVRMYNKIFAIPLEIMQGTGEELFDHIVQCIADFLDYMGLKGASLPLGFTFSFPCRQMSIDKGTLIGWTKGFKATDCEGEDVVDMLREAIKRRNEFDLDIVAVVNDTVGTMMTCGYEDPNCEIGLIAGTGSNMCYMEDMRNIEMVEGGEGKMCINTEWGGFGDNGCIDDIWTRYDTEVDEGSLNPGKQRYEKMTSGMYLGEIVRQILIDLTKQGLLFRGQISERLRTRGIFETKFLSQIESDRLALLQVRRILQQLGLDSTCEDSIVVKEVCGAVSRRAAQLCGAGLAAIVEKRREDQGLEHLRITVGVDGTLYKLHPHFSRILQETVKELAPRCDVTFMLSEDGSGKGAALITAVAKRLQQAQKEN
Nature of the experiment: HKDC1 hexokinase inhibitors, dose response, biochemical, W721R variant (AID 504729). It counts as functional.

The target in experiment [3] is Bifunctional protein GlmU (Mycobacterium tuberculosis, UniProt P9WMN3). Nature of the experiment: Inhibitors of Mycobacterial Glucosamine-1-phosphate acetyl transferase (GlmU). Secondary screen. Details: species or system Mycobacterium tuberculosis H37Rv.
Chain of Bifunctional protein GlmU (P9WMN3 whole entry): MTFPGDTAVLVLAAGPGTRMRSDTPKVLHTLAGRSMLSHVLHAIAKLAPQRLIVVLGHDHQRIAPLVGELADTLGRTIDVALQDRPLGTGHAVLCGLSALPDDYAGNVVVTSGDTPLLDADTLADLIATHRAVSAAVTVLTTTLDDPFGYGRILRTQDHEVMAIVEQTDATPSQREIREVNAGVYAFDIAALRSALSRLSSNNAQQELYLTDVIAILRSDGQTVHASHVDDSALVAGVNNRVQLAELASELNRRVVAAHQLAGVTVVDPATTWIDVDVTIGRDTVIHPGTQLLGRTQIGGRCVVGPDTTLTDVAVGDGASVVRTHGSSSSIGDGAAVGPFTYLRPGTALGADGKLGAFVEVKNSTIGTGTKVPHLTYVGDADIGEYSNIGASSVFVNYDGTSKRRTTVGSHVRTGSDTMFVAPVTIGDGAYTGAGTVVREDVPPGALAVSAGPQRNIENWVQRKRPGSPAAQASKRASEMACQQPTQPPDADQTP
Experiment [4] addresses Mitogen-activated protein kinase 10 (Homo sapiens, UniProt P53779). Description: Dose response biochemical screening assay for inhibitors of c-Jun N-Terminal Kinase 3 (JNK3). [Related pubchem assays: 746 ].
Experiment [5] addresses Sphingosine 1-phosphate receptor 2 (Homo sapiens, UniProt O95136). Nature of the experiment: Dose Response Cell Based Assay for Agonists of the S1P2 Receptor. [Related pubchem assays: 729, 736, 843 ]. It counts as functional.
The target in experiment [6] is T4, Rac GTPase-activating protein 1 (Homo sapiens, UniProt Q9H0H5).
T4 sequence (Q9H0H5 whole entry): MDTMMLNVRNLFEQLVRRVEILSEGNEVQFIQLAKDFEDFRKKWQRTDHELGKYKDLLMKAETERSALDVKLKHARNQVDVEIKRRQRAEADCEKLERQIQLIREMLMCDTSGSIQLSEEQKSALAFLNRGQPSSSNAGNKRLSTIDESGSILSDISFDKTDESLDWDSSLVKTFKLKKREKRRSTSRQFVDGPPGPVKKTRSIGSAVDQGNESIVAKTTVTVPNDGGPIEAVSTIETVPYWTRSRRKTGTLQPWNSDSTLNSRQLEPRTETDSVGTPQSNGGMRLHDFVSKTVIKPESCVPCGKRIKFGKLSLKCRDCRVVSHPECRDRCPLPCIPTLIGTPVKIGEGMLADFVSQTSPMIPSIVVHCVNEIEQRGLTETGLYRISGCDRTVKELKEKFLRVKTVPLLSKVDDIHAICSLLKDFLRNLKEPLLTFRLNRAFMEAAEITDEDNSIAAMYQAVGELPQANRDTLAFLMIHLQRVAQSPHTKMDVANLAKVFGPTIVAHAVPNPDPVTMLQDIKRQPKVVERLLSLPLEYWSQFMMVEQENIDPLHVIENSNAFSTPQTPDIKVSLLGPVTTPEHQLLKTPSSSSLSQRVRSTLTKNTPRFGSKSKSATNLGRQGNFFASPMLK
Nature of the experiment: MgcRacGAP GTPase-activating activity inhibitors, confirmation, biochemical, ADP Hunter fluorescence, primary and confirmatory (AID 624330). It counts as functional.

The target in experiment [7] is T5, Apoptotic protease-activating factor 1 (Homo sapiens, UniProt O14727).
T5 sequence (O14727 whole entry): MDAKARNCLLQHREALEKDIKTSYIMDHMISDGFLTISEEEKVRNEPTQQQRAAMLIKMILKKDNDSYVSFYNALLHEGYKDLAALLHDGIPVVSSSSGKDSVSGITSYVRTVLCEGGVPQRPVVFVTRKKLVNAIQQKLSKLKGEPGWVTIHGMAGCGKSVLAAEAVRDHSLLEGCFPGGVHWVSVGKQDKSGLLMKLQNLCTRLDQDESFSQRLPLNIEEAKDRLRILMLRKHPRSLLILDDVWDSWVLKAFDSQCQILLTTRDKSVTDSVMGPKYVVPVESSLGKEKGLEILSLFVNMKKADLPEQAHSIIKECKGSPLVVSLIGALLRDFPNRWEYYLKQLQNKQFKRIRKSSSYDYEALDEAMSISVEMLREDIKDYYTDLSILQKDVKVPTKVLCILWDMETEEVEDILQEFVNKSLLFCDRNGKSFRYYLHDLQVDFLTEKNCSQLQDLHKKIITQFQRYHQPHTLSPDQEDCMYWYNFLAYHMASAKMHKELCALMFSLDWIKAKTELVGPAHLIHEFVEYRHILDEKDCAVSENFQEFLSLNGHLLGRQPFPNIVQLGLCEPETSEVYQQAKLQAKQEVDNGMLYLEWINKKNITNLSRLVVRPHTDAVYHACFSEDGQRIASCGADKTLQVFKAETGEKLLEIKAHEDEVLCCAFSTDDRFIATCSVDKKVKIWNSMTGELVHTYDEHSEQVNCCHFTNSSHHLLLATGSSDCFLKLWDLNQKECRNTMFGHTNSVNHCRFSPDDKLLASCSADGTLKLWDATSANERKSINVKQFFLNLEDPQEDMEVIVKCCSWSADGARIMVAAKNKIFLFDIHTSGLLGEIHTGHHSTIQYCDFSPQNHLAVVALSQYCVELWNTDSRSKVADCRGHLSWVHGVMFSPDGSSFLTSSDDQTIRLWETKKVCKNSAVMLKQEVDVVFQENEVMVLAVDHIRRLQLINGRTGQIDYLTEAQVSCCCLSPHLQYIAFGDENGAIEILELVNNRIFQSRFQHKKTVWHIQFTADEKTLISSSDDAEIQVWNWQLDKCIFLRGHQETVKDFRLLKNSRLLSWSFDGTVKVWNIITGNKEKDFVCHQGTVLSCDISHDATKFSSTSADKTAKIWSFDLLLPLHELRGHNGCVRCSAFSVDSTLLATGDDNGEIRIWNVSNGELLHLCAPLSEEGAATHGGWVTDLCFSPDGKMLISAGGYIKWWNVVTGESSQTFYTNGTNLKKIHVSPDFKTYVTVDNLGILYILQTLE
It counts as functional.

The target of experiment [8] is Mannose-6-phosphate isomerase (Homo sapiens, UniProt P34949). Description: human PMI inhibitors, high substrate, primary screen, biochemical, fluorescence intensity, high mannose 6-phosphate (AID 1220).
Chain of Mannose-6-phosphate isomerase (P34949 whole entry): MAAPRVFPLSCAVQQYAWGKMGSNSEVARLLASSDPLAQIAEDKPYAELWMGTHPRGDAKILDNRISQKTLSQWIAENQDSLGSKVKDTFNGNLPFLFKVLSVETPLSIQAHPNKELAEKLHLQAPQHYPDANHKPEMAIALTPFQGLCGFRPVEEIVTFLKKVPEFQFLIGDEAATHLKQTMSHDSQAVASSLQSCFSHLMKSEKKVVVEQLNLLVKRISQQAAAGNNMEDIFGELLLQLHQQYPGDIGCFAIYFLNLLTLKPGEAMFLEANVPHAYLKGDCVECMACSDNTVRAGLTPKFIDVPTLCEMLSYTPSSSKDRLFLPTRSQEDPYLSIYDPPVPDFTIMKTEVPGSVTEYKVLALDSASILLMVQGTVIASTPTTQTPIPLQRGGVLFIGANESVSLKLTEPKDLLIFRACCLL

Chain of Sphingosine 1-phosphate receptor 2 (O95136 whole entry): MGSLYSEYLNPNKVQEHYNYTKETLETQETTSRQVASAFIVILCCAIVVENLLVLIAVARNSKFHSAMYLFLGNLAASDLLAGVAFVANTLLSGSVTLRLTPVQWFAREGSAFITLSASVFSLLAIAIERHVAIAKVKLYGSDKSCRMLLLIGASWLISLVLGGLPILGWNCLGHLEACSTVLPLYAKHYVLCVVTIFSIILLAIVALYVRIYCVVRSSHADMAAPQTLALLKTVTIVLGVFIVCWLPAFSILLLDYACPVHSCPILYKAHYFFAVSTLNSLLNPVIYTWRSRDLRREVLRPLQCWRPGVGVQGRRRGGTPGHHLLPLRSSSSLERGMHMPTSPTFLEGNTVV
Chain of Mitogen-activated protein kinase 10 (P53779 whole entry): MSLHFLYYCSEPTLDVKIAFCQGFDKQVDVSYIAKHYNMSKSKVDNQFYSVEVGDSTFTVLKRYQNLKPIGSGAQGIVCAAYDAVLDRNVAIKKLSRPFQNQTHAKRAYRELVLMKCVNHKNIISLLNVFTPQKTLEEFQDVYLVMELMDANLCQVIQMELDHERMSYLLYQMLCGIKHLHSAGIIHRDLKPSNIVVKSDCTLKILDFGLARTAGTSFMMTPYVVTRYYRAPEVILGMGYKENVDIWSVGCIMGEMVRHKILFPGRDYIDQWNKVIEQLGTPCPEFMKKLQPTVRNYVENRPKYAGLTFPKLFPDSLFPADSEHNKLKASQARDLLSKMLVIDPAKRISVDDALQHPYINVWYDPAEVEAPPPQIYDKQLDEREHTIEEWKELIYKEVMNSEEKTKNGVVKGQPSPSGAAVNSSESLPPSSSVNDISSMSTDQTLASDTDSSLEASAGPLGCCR

Consider `COc1cc(/C=C(\C#N)c2nc3cc(C)ccc3[nH]2)cc([N+](=O)[O-])c1O`, for which the IC50 at Aminopeptidase N was 16.2 µM (active); in experiment [2], 24.5 µM (active); at Hexokinase HKDC1 it was 16.1 µM (active); in [3], 94.3 µM (active). Further, in [1], the AC50 was > 20 µM (inactive).

As to `Cc1nn(C)cc1CNC(=O)c1cnn2c(C(F)F)cc(C3CC3)nc12`, the IC50 in experiment [4] was 26.8 µM (not active).

Consider `COC(=O)c1c[nH]nc1N=C(S)Nc1ccccc1C`, for which the EC50 in experiment [5] was > 50 µM (not active).

In the case of `CC1(C)CNc2cc(N)ccc2S1`, the IC50 in experiment [6] is 22.9 µM (active); in experiment [7] it was 7.45 µM (active); in [8], > 50 µM (not active).
